Source: US20250099407A1, “2-AMINO BENZOPHENONE DERIVATIVES FOR TARGETED FERROPTOSIS INDUCTION IN CANCER THERAPY” (INDIAN INSTITUTE OF TECHNOLOGY KANPUR, priority 2023, published 2025)

Tested on: 4T1 cells
Test: Combination cell viability experiments in 4T1 cells
Format: cell-based
Details: 4T1, Ferrostain-1 10 μM
Method: FIG. 14 depicts a combination experiment indicates the involvement of thiol modulation by IITK3001/IITK3002 on the viability of Huh-7 and 4T1 cells, in accordance with an embodiment of the present invention. The viability of screened cancer cells was recorded using a luminescence-based CellTiter-Glo® assay for the ATP quantification. The screening concentration of (a) IITK3001 and (b) IITK3002 ranged from 10 uM to 4.5 nM with an 8-point-3-fold dilution series in DMEM medium (>0.1% DMSO as control). For combination experiments, 500 μM of NAC or glutathione and 25 μM of BSO were used. Each experiment was conducted in more than two biological replicates with three technical replicates. The error bar is a representation of standard deviation among the technical replicates.
FIG. 17 depicts IITK3001-mediated ferroptosis induction as a cell death mechanism in 4T1 cells is recorded, in accordance with an embodiment of the present invention. The screening concentration of (a) IITK3001 and (b) IITK3002 ranged from 10 μM to 4.5 nM with an 8-point-3-fold dilution series. […]
FIG. 19 depicts IITK3001-mediated ferroptosis induction as a cell death mechanism in 4T1 cells is recorded, in accordance with an embodiment of the present invention. […]

CN(C(=O)CCl)c1ccccc1C(=O)c1ccccc1 [IITK3001, N-(2-benzoylphenyl)-2-chloro-N-methylacetamide]
effect of Fer-1 combination in 4T1 cells: negligible
